Our source for the Activity values is ChEMBL document CHEMBL5678818, “Discovery of potent SOS1 inhibitors that block RAS activation via disruption of the RAS-SOS1 interaction” (Proc Natl Acad Sci U S A, 2019).

Experiment [1] relates to Receptor-type tyrosine-protein kinase FLT3 (Homo sapiens), P36888 [UNDEFINED MUTATION]. In words: Inhibition of FLT3 ITD/F691L mutant (unknown origin) assessed as residual activity at 1000 nM by KINOMEscan analysis relative to control.
In experiment [2] the target is Aurora kinase B (Homo sapiens) (UniProt Q96GD4). In words: Inhibition of AURKB (unknown origin) assessed as residual activity at 100 nM by KINOMEscan analysis relative to control.
Sequence of Aurora kinase B (Homo sapiens) (Q96GD4 whole entry): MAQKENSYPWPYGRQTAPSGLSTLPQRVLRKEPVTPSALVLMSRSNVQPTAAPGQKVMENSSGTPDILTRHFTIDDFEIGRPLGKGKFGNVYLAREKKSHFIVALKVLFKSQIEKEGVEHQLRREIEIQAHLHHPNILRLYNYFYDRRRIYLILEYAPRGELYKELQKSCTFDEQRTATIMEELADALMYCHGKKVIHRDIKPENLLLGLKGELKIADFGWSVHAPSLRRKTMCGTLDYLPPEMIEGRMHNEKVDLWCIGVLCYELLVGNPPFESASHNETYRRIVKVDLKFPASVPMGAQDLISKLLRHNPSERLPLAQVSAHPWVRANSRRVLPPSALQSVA
Experiment [3] deals with Calcium/calmodulin-dependent protein kinase type II subunit delta (Homo sapiens) (UniProt Q13557). The experiment can be described thus: Inhibition of CAMK2D (unknown origin) assessed as residual activity at 100 nM by KINOMEscan analysis relative to control.
Sequence of Calcium/calmodulin-dependent protein kinase type II subunit delta (Homo sapiens) (Q13557 whole entry): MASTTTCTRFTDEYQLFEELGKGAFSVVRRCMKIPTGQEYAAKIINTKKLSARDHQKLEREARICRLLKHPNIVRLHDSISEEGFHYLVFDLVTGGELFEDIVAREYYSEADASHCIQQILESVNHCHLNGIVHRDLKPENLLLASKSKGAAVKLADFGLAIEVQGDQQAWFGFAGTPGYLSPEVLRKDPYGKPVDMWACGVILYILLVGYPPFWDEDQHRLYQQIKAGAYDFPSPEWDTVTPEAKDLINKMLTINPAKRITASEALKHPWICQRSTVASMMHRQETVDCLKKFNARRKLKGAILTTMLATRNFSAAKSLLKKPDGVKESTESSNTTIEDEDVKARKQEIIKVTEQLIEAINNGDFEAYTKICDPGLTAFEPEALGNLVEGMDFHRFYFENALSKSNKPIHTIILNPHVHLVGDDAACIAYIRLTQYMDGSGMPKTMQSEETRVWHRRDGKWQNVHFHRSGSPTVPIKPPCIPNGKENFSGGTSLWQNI
For experiment [4], the target named is Fibroblast growth factor receptor 1 (Homo sapiens) (UniProt P11362). The experiment can be described thus: Inhibition of FGFR1 (unknown origin) assessed as residual activity at 100 nM by KINOMEscan analysis relative to control.
Experiment [5] has as its target T1, Cyclin-G-associated kinase (Homo sapiens) (UniProt O14976).
T1 sequence (whole entry): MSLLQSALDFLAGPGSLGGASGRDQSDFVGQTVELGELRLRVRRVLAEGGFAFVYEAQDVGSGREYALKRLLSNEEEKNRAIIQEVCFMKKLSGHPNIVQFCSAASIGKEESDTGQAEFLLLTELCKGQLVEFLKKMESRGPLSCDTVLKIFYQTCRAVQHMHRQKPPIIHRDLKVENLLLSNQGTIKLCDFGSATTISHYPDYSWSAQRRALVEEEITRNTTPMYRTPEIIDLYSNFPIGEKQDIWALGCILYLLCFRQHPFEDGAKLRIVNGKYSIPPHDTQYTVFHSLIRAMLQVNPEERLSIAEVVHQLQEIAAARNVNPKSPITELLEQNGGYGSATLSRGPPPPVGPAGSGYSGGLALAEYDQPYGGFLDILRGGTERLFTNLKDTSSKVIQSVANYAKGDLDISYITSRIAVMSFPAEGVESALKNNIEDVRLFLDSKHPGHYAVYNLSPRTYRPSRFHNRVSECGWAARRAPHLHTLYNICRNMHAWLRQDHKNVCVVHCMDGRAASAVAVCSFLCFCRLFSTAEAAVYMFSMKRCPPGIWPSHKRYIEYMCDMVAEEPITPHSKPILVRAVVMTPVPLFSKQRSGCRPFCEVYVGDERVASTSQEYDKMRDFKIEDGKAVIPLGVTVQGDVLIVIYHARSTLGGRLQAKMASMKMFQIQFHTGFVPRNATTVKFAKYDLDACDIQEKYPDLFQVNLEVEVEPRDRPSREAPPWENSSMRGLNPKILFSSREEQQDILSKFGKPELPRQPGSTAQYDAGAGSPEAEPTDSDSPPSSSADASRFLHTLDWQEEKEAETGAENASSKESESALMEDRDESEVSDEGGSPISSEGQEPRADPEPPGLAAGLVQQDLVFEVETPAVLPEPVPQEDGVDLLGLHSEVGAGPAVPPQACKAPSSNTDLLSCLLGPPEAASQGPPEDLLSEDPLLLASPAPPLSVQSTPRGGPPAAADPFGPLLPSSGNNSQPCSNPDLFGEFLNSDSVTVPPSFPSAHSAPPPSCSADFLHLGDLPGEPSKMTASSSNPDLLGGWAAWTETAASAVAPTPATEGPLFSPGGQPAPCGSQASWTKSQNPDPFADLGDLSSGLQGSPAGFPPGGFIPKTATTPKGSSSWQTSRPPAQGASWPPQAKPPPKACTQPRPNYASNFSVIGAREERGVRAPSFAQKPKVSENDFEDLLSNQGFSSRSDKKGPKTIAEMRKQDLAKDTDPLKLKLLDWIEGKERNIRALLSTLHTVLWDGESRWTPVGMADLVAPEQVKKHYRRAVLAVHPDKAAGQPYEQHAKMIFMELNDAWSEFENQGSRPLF
The experiment can be described thus: Inhibition of GAK (unknown origin) assessed as residual activity at 100 nM by KINOMEscan analysis relative to control.

For experiment [6], the target named is Serine/threonine-protein kinase NIM1 (Homo sapiens) (UniProt Q8IY84). In words: Inhibition of NIM1 (unknown origin) assessed as residual activity at 100 nM by KINOMEscan analysis relative to control.
Sequence of Serine/threonine-protein kinase NIM1 (Homo sapiens) (Q8IY84 whole entry): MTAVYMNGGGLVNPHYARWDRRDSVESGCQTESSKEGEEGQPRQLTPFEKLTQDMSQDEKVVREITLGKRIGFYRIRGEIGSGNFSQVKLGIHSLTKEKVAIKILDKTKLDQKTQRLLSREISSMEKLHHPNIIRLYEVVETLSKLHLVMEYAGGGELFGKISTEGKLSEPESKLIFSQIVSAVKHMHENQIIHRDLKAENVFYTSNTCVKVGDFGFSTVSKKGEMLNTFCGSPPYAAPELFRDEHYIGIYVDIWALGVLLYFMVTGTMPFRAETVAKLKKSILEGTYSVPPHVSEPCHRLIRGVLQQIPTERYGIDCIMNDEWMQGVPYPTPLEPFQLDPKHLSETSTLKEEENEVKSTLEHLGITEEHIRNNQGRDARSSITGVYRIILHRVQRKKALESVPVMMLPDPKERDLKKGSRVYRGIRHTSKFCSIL
For experiment [7], the target named is Serine/threonine-protein kinase PAK 5 (Homo sapiens) (UniProt Q9P286). In words: Inhibition of PAK7 (unknown origin) assessed as residual activity at 100 nM by KINOMEscan analysis relative to control.
Sequence of Serine/threonine-protein kinase PAK 5 (Homo sapiens) (Q9P286 whole entry, looked up, canonical isoform): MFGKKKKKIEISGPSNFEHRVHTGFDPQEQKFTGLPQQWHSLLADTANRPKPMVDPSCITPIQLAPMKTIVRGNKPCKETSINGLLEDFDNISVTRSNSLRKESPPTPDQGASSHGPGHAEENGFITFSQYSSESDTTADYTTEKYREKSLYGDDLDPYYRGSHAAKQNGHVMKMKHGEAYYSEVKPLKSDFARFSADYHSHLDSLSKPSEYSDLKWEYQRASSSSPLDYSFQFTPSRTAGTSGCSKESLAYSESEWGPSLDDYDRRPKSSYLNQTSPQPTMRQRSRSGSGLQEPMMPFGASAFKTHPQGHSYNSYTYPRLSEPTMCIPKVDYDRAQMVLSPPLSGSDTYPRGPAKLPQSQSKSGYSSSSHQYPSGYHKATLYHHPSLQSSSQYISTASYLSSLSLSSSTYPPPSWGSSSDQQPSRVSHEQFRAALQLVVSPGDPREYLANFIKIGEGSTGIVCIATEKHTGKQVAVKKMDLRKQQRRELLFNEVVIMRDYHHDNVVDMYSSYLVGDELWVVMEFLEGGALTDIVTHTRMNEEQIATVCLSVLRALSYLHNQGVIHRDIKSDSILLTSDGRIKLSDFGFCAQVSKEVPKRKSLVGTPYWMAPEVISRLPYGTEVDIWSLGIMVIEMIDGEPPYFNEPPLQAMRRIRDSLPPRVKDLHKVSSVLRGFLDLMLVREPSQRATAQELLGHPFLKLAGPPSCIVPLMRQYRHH
In experiment [8] the test system is Phosphatidylinositol 4,5-bisphosphate 3-kinase catalytic subunit alpha isoform (Homo sapiens), P42336 [H1047L]. In words: Inhibition of PIK3CA H1047L mutant (unknown origin) assessed as residual activity at 100 nM by KINOMEscan analysis relative to control.
Sequence of Phosphatidylinositol 4,5-bisphosphate 3-kinase catalytic subunit alpha isoform (Homo sapiens), P42336 [H1047L] (P42336 whole entry H1047L, canonical isoform): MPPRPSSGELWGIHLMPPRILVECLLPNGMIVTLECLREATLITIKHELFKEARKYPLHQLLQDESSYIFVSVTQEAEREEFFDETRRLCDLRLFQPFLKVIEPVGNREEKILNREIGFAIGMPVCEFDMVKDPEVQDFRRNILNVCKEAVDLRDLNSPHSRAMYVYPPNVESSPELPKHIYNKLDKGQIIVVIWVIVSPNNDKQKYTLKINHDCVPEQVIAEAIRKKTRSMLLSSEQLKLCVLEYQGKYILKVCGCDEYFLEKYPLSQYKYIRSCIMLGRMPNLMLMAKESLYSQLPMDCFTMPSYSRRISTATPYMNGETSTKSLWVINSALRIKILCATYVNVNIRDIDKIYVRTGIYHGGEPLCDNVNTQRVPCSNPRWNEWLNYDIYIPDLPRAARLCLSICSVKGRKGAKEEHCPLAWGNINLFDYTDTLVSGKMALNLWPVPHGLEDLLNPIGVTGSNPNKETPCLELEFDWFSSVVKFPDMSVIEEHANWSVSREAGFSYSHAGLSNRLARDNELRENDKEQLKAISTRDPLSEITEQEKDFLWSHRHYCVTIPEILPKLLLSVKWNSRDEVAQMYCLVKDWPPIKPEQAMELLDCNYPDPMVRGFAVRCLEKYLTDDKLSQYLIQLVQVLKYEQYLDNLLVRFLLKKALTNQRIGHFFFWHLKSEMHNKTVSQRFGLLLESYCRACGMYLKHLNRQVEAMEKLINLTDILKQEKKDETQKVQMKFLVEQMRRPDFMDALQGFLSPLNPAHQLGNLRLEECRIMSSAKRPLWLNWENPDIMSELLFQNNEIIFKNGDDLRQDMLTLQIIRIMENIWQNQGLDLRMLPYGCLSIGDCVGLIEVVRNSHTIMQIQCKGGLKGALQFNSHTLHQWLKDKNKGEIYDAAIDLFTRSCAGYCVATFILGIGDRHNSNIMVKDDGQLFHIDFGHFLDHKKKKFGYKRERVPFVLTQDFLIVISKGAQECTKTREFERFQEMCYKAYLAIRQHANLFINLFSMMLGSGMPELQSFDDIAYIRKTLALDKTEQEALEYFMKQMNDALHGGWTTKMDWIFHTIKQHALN
For experiment [9], the target named is T2, Serine/threonine-protein kinase D2 (Homo sapiens) (UniProt Q9BZL6).
T2 sequence (whole entry): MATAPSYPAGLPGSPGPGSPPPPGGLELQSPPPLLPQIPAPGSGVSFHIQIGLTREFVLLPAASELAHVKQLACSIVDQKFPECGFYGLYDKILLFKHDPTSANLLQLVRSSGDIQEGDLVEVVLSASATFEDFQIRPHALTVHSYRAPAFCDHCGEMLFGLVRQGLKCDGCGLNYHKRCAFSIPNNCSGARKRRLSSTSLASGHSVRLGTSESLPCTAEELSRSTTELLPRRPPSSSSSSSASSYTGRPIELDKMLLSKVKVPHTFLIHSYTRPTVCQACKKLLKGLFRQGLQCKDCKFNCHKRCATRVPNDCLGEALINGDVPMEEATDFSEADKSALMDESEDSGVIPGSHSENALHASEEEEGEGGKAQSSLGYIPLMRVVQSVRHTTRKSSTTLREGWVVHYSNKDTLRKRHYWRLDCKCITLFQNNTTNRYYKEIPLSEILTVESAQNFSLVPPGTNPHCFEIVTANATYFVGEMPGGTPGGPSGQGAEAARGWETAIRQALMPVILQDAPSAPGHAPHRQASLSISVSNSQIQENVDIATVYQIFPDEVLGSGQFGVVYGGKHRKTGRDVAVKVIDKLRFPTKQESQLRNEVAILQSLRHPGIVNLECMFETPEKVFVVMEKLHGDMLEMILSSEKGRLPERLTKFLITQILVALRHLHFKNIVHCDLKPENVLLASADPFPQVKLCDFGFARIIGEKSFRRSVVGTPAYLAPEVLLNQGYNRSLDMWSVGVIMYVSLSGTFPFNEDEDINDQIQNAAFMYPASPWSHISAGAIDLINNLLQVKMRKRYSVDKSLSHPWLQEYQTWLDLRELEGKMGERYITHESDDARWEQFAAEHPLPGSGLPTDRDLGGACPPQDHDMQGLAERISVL
The experiment can be described thus: Inhibition of PRKD2 (unknown origin) assessed as residual activity at 100 nM by KINOMEscan analysis relative to control.

Experiment [10] addresses BDNF/NT-3 growth factors receptor (Homo sapiens) (UniProt Q16620). The experiment can be described thus: Inhibition of TRKB (unknown origin) assessed as residual activity at 100 nM by KINOMEscan analysis relative to control.

Each structure is given as a SMILES string.

Sequence of Receptor-type tyrosine-protein kinase FLT3 (Homo sapiens), P36888 [UNDEFINED MUTATION] (P36888 whole entry, looked up, stated change not applied): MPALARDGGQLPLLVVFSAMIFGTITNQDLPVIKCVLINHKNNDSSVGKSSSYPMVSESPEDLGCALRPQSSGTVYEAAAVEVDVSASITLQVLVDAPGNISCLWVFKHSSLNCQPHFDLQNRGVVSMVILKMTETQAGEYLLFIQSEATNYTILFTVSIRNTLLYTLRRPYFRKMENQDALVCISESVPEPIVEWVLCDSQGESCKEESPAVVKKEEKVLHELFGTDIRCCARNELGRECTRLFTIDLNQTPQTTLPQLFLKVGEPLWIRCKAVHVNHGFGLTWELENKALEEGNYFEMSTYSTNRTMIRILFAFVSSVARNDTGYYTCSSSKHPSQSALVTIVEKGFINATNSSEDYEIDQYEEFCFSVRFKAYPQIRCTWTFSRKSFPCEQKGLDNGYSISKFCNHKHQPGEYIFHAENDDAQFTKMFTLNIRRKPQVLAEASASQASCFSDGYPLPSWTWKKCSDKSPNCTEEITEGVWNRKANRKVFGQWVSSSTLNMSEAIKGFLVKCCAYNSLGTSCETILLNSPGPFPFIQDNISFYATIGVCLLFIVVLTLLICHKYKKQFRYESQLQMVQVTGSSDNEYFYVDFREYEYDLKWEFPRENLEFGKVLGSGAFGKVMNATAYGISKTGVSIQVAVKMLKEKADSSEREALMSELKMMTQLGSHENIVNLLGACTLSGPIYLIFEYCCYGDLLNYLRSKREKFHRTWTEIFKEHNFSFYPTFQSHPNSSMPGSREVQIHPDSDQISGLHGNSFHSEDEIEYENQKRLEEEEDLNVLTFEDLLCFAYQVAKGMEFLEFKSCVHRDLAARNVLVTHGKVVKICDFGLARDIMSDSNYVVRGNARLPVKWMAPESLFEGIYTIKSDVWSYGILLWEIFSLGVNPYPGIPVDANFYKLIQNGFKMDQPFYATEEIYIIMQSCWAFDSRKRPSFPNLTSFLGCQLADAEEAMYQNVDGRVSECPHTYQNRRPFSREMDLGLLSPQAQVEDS
Sequence of BDNF/NT-3 growth factors receptor (Homo sapiens) (Q16620 32-822 limits assumed): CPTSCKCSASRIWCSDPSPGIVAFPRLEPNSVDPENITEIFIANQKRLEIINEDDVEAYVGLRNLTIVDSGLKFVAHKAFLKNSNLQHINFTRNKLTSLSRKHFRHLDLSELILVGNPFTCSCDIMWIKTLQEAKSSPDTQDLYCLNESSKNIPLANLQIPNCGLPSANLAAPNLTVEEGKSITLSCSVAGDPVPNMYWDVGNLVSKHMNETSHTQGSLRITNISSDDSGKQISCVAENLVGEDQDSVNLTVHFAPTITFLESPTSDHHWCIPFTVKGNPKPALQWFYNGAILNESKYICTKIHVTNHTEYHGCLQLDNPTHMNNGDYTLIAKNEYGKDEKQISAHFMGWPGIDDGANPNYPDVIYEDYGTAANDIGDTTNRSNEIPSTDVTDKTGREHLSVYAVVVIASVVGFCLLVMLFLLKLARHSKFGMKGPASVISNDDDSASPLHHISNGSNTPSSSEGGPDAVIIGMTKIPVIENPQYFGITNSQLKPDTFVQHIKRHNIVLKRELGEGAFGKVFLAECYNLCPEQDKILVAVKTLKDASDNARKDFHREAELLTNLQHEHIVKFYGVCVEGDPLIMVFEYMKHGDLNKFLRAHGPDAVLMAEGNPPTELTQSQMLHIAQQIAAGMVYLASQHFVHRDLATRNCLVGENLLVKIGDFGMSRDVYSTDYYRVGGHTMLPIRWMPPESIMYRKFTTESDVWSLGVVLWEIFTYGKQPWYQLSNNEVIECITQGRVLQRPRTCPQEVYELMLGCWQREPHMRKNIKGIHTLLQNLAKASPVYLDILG

With `COc1cc2nc(C)nc(N[C@H](C)c3cccc(-c4cn[nH]c4)c3)c2cc1OC`, the Activity in experiment [1] amounted to 86%.
For the compound `COc1cc2ncnc(N[C@H](C)c3cccc4ccccc34)c2cc1OC`, the Activity in experiment [2] stood at 96%; in experiment [3] it was 70%; in experiment [4], 100%; in experiment [5] it was 100%; in experiment [6], 78%; in experiment [7], 100%. Moreover, the Activity in experiment [8] is 73%; in [9] it was 80%; in experiment [10], 96%.
